# Biological target: T1, 17β-HSD10 (Homo sapiens, UniProt Q99714)
# T1 construct: Histev (histidine tag with TEV site) (N, cleaved yes); made in house; host or cells: E. coli BL21-CodonPlus
# T1 sequence (Q99714 1-261): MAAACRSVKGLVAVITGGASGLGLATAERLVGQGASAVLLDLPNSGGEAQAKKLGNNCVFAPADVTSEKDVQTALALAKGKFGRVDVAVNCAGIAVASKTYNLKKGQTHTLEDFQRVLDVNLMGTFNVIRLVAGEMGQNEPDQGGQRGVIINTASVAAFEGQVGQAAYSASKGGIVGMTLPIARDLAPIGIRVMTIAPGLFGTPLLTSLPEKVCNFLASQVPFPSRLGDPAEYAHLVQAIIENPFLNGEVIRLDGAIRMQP
# Assay: 17β-HSD10 (ABAD) enzyme inhibition assay, NADH oxidation read at 340 nm (primary screen and dose response)
# Format: biochemical
# Conditions: for EC50 / Max. Effect (%) / Hill Slope / Max. Fit / Min. Fit: recombinant 17βHSD10 enzyme assay; for Hill Slope / Max. Fit / Min. Fit: curve fit
# Protocol: Cell pellets of E. coli BL21-CodonPlus cells containing Histev-17β-HSD10 protein were re-suspended for 30 min, 4° C., in lysis buffer (20 mM NaH2PO4, 30 mM imidazole, 500 mM NaCl, 10% (v/v) glycerol, pH 7.5) with the addition of complete ethylenediaminetetraacetic acid (EDTA)-free protease inhibitor tablets (Roche), lysozyme (1 mg/mL), deoxyribonuclease (DNase) (20 μg/mL) and Triton X-100 (0.1% (v/v)). Cells were lysed by passage through a cell disruptor at 30 kPSI (Constant Systems Ltd) and the lysate was cleared by centrifugation (Sorvall Evolution RC, rotor S5-34 55-34 angle, 20500 rpm, 30 min, 4° C.). Cleared lysate was filtered (0.45 μm membrane; Whatman) then applied to a Ni-nitrilotriacetic acid (NTA) (GE Healthcare) column pre-washed with lysis buffer and protein eluted with 300 mM imidazole buffer (20 mM NaH2PO4, 300 mM imidazole, 500 mM NaCl, 10% (v/v) glycerol, pH 7.5). […] Protein digestion and dialysis was carried out at 4° C. for 16 h.
# Complete digestion was firstly checked by sodium dodecyl sulfate-polyacrylamide gel electrophoresis (SDS-PAGE), then fully digested protein was passed over a second Ni-column and the flow-through, containing 17β-HSD10 protein, was concentrated using a Vivaspin column (10 kDa MWCO, GE Healthcare) to ˜7 mL before final purification using gel filtration to remove imidazole (Hi-Load 16/60 Superdex 75 prep grade column, GE Healthcare, flow rate 1.5 mL/min). Protein was eluted in gel filtration buffer (10 mM trisaminomethane (Tris-HCl), 150 mM NaCl, 10% glycerol, pH 7.5) and concentrated (Vivaspin column (10 kDa molecular weight cut off (MWCO), GE Healthcare)) to 10 mg/mL. Aliquots (10 μL) were taken and flash frozen in liquid nitrogen before final storage at −80° C.
# The assay buffer used contains: 10 mM Tris. HCl (pH 7.4), 150 mM NaCl, 1 mM DTT, 0.005% Tween (polysorbate 20) and 0.01% bovine serum albumin (BSA). As indicated for some experiments the assay buffer was supplemented with 100 units/ml bovine liver catalase. All experiments were conducted in clear bottom 384-well or 1536-well low volume microplates (Corning) with a final assay volume of 20 μL and the reaction progress was monitored by oxidation of NADH as determined by reduction in absorbance at 340 nm read on the EnVision plate reader (PerkinElmer).
# For primary screening an endpoint assay format was adopted in which an Echo acoustic liquid dispenser (Labcyte) was used to transfer 20 nL of either reference standard, dimethylsulfoxide (DMSO) control ([…] final assay concentration (FAC)) or test compounds (10 μM FAC) to the assay plate. 10 μL of 17β-HSD10 enzyme in assay buffer (2.5 nM, FAC) was then added to the plates using the Preddator liquid handling robot (Redd and Whyte) and plates were incubated at room temperature for 15 minutes. 10 μL of substrate mixture (100 μM acetoacetyl-CoA and 100 μM NADH, FAC) was added with the Preddator. To start the reaction and the plates were left to incubate for 35 minutes at room temperature before the absorbance at 340 nm was read on the EnVision plate reader (PerkinElmer). For kinetic assay format and dose response follow up experiments the same protocol was adopted but the absorbance at 340 nm was monitored constantly for 45 minutes from immediately after the reaction was started.
Structure (SMILES),EC50 [nM],Max. Effect (%),Hill Slope,Max. Fit,Min. Fit,17β-HSD10 / ABAD activity in words (SAR discussion),"ABAD plC50 (primary screening, resynthesized HTS hit compounds)"
CC(C)CN(CC(C)C)c1cccc(N(C)Cc2cnc[nH]2)c1 [ESC1002025],> 20000,15,,,,,
O=C(c1sccc1Cl)N1CCC[C@H]1c1ccccc1-c1ccc(F)c(O)c1 (racemic) [ESC1002775],49,100,1.2,96,0,,
COc1cc(-c2ccccc2[C@@H]2CCCN2C(=O)c2sccc2Cl)ccc1C (racemic) [ESC1002700],398,93,1.4,92,−2,,
"Cc1ccc(C(=O)N(c2cccc(N(C)Cc3cnc[nH]3)c2)C(C)C)cc1 [ESC1002080, N-[3-[1H-imidazol-5-ylmethyl(methyl)amino]phenyl]-N-isopropyl-4-methyl-benzamide]",1000,96,0.9,102,0,,
COc1cccc(-c2ccccc2[C@H]2CCCN2C(=O)c2scnc2C)c1 [ESC1002430],6030,65,1.2,80,−1,significantly less active,
Cc1ccsc1C(=O)N1CCC[C@H]1c1ccccc1-c1cccc(C(F)(F)F)c1 (racemic) [ESC1002790],,93,1.2,93,−1,,
"CCN(C(=O)c1cccc(F)c1)c1cccc(N(C)Cc2cnc[nH]2)c1 [S2−T5, N-ethyl-3-fluoro-N-[3-[1H-imidazol-5-ylmethyl(methyl)amino]phenyl]benzamide]",> 20000,18.4,,,,,
"O=C(c1sccc1Cl)N1CCC[C@H]1c1ccccc1-c1cc(O)cc(F)c1 (single isomer, unassigned) [ESC1002800]",> 20000,10,,,,,
COc1cccc(-c2ccccc2[C@@H]2CCCN2C(=O)C(C)C)c1 (racemic) [ESC1002603],> 20000,21,,,,,
Cc1ccc(C(=O)N(CC(C)C)c2nccc(N(C)Cc3cnc[nH]3)n2)cc1 [ESC1002817],> 20000,4,,,,,
"Cc1ccsc1C(=O)N1CCC[C@H]1c1ccccc1-c1cccc(C(F)(F)F)c1 (single isomer, unassigned) [ESC1002790]",661,,,,,,
COc1cccc(-c2ccccc2[C@H]2CCCN2C(C)c2ccccc2)c1 (some centres unmarked) [ESC1002505],> 20000,3,,,,,
"Cc1cn[nH]c1C(=O)N1CCC[C@H]1c1ccccc1 [S1−T1, 4-methyl-5-{[(2S)-2-phenylpyrrolidin-1-yl]carbonyl}-1H-pyrazole]",> 20000,26.5,,,,,
CC(=O)NCCCN(C)c1cccc(N(CC(C)C)C(=O)c2ccccc2F)c1 [ESC1002507],> 20000,4,,,,,
"Cc1ccccc1C(=O)N(CC(C)C)c1cccc(N(C)Cc2c[nH]cn2)c1 [ESC1002491, N-[3-[1H-imidazol-4-ylmethyl(methyl)amino]phenyl]-N-isobutyl-2-methyl-benzamide]",1170,96,1,102,2,,
CC(C)CN(C(=O)c1ccccc1F)c1cccc(-n2cnnc2)c1 [ESC1002764],> 20000,4,,,,,

Structure (SMILES),EC50 [nM],Max. Effect (%),Hill Slope,Max. Fit,Min. Fit,17β-HSD10 / ABAD activity in words (SAR discussion),"ABAD plC50 (primary screening, resynthesized HTS hit compounds)"
"CC(C)CN(C(=O)c1ccccc1Cl)c1cccc(N(C)Cc2c[nH]cn2)c1 [ESC1002457, 2-chloro-N-[3-[1H-imidazol-4-ylmethyl(methyl)amino]phenyl]-N-isobutyl-benzamide]",447,95,1.4,94,−4,,
"CC(C)CN(C(=O)c1ccc(F)cc1F)c1cccc(N(C)Cc2c[nH]cn2)c1 [ESC1002454, 2,4-difluoro-N-[3-[1H-imidazol-4-ylmethyl(methyl)amino]phenyl]-N-isobutyl-benzamide]",457,96,1.1,97,−8,,
"O=C(c1sccc1Cl)N1CCC[C@H]1c1ccccc1-c1ccc(F)c(O)c1 (single isomer, unassigned) [ESC1002839]",4170,85,1.1,96,−4,,
"CCc1ccc(C(=O)N(CC(C)C)c2cccc(N(C)Cc3c[nH]cn3)c2)cc1 [ESC1002459, 4-ethyl-N-[3-[1H-imidazol-4-ylmethyl(methyl)amino]phenyl]-N-isobutyl-benzamide]",832,93,1.2,94,−4,,
"CC(C)CN(C(=O)c1ccncc1)c1cccc(N(C)Cc2cnc[nH]2)c1 [ESC1002034, N-[3-[1H-imidazol-5-ylmethyl(methyl)amino]phenyl]-N-isobutyl-pyridine-4-carboxamide]",1580,92,0.8,106,−3,,5.8
CNC(=O)CNc1cccc(N(CC(C)C)C(=O)c2ccccc2F)c1 [ESC1002573],> 20000,4,,,,,
CCCn1c(C(N)=O)cc2cc(-c3cn[nH]c3)ccc21 [ESC1002019],3980,85,1.3,93,2,,
O=C(c1sccc1Cl)N1CCC[C@H]1c1ccccc1-c1cc(O)cc(F)c1 (racemic) [ESC1002776],40.7,99,1,96,−1,,
"CCN(C(=O)c1ccccc1F)c1cccc2c1ncc(=O)n2Cc1cnc[nH]1 [S2−T2, N-ethyl-2-fluoro-N-[1-(1H-imidazol-5-ylmethyl)-2-oxo-1,2 dihydroquinoxalin-5-yl]benzamide]",> 20000,4.8,,,,,
"CCN(C(=O)C1CCCCN1C)c1cccc(N(C)Cc2cnc[nH]2)c1 (centres unmarked) [S2−T7, N-ethyl-N-[3-[1H-imidazol-5-ylmethyl(methyl)amino]phenyl]-1-methyl-piperidine-2-carboxamide]",> 20000,27.9,,,,,
"Cc1ccsc1C(=O)N1CCC[C@H]1c1ccccc1-c1cccc(Cl)c1 (single isomer, unassigned) [ESC1002768]",> 20000,12,,,,,
COc1cccc(-c2ccccc2[C@H]2CCCN2Cc2ccccc2)c1 [ESC1002504],> 20000,−6,,,,,
"Cc1ccsc1C(=O)N1CCC[C@H]1c1ccccc1-c1ccccc1Cl (single isomer, unassigned) [ESC1002767]",155,96,0.98,96,−2,,
CC(C)CN(C(=O)c1ccccc1F)c1cccc(N(C)CCO)c1 [ESC1002577],8130,72,0.95,100,−1,,
Cn1cc(-c2ccccc2[C@@H]2CCCN2C(=O)c2sccc2Cl)cn1 (racemic) [ESC1002704],1070,98,1,103,−10,,
